In patent publication US8796304B2, “Tricyclic imidazole compounds as PDE10 inhibitors” (H. Lundbeck A/S, priority 2010, dated 2014):

Key:
PDE10A enzyme = PDE10A enzyme (Homo sapiens (Human), UniProt Q9Y233); experiment: PDE10A inhibition assay (3H-cAMP, SPA beads); format: biochemical; details: 10 nM 3H-cAMP, 1 hour incubation; read-out: PDE10 IC50
Description: PDE10A can be expressed as full-length proteins or as truncated proteins, as long as they express the catalytic domain, PDE10A can be prepared in different cell types, for example insect cells or E. coli. […] Expression in coil is performed according to standard protocols. Briefly, the expression plasmids are transformed into the BL21(DE3) E. coli strain, and 50 mL cultures inoculated with the cells allowed to grow to an OD600 of 0.4-0.6 before protein expression is induced with 0.5 mM IPTG. Following induction, the cells are incubated overnight at room temperature, after which the cells are collected by centrifugation. Cells expressing PDE10A are resuspended in 12 mL (50 mM TRIS-HCl-pH8.0, 1 mM MgCl2 and protease inhibitors). The cells are lysed by sonication, and after all cells are lysed, TritonX100 is added according to Novagen protocols.
Reactions are initiated by addition of the cyclic nucleotide substrate, and reactions are allowed to proceed for one hr at room temperature before being terminated through mixing with 15 uL […] yttrium silicate SPA beads (Amersham).
Following a 1 hour incubation the reactions were terminated by addition of 15 uL 8 mg/mL yttrium silicate SPA beads (Amersham). […] were calculated by non linear regression using XLfit (IDBS).

[1] = test system: amphetamine induced hyperactivity; details: rats; cited from earlier work
catalepsy in rats = details: cited from earlier work
[2] = test system: hyperactivity in rats induced by PCP; details: cited from earlier work
[3] = test system: PCP induced hyperactivity in mice; experiment: Phencyclidine (PCP) induced hyperactivity; format: in vivo, mice (NMRI); details: Mus musculus
Description: Male mice (NMRI, Charles River) weighing 20-25 g are used. Eight mice are used in each group receiving the test compound (5 mg/kg) plus PCP (2.3 mg/kg) including the parallel control groups receiving the vehicle of the test compound plus PCP or vehicle injections only. The injection volume is 10 ml/kg. The experiment is made in normal light conditions in an undisturbed room. The test substance is injected per oss 60 min before injection of PCP, which is administered subcutaneous.
Immediately after injection of PCP the mice are placed individually in special designed test cage (20 cm×32 cm). The activity is measured by 5×8 infrared light sources and photocells spaced by 4 cm. The light beams cross the cage 1.8 cm above the bottom of the cage. […]
Motility is recorded in 5 min intervals for a period of 1 hour. The drug effect is calculated on the total counts during the 1 hour behavioral test period in the following manner:
The mean motility induced by vehicle treatment in the absence of PCP is used as baseline. The 100 percent effect of PCP is accordingly calculated to be total motility counts minus baseline. The response in groups receiving test compound is thus determined by the total motility counts minus baseline, expressed in percent of the similar result recorded in the parallel PCP control group. […]

Chain of PDE10A enzyme (Q9Y233 716-1055): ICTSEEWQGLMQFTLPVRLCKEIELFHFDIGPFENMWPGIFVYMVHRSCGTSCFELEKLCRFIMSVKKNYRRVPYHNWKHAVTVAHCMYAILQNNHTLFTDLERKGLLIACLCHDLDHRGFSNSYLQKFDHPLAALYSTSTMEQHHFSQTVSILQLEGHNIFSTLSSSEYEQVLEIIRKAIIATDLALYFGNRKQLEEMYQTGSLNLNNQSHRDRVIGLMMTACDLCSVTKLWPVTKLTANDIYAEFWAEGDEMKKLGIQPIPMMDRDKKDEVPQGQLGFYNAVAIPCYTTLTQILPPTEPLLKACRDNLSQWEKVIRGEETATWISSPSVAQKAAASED

Compound | IC50 (PDE10A enzyme) [nM] | also measured
Cc1cccc2nc(CCc3cn4c(n3)-c3ccccc3C4)nn12 [2-[2-(5-Methyl-[1,2,4]triazolo[1,5-a]pyridin-2-yl)-ethyl]-5H-imidazo[2,1-a]isoindole] | 6.1 | –
Cc1cc(C)n2nc(SCc3cn4c(n3)-c3ccccc3C4)nc2n1 [2-[(5,7-dimethyl-[1,2,4]triazolo[1,5-a]pyrimidin-2-yl)sulfanylmethyl]-5H-imidazo[2,1-a]isoindole] | 260 | –
COc1ccc(Cc2nccc3cc(OC)c(OC)cc23)cc1OC [Papaverine, papaverine] | – | Reduction of amphetamine induced hyperactivity [1]: insignificant; Catalepsy on its own (catalepsy in rats; alone): did not cause catalepsy on its own; Effect on the cataleptic effect of the D2 receptor antagonist haloperidol (catalepsy in rats; together with haloperidol): potentiated the cataleptic effect; Hyperactivity induced by PCP [2]: reduced hyperactivity
[2H]C([2H])([2H])c1ncc(C([2H])([2H])[2H])n2nc(CCc3cn4c(n3)-c3ccccc3C4([2H])[2H])nc12 [2-[2-(5,8-Bis(trideuteromethyl-[1,2,4]triazolo[1,5-a]pyrazin-2-yl)-ethyl]-5,5-dideutero-5H-imidazo[2,1-a]isoindole] | 0.4 | –
Cc1ncc(C)n2nc(CCc3cn4c(n3)-c3ccccc3C4C(C)(C)O)nc12 (centres unmarked) [2-{2-[2-(5,8-Dimethyl-[1,2,4]triazolo[1,5-a]pyrazin-2-yl)-ethyl]-5H-imidazo[2,1-a]isoindol-5-yl}-propan-2-ol] | 21 | –
Cc1ncc(C)n2nc(C=Cc3cn4c(n3)-c3ccccc3C4)nc12 (racemic) [2-[-2-(5,8-Dimethyl-[1,2,4]triazolo[1,5-a]pyrazin-2-yl)-vinyl]-5H-imidazo[2,1-a]isoindole] | 4.4 | –
Cc1c[n+]([O-])c(C)c2nc(CCc3cn4c(n3)-c3ccccc3C4)nn12 [2-[-2-(5,8-Dimethyl-7-oxy-[1,2,4]triazolo[1,5-a]pyrazin-2-yl)-ethyl]-5H-imidazo[2,1-a]isoindole] | 2.4 | –
Cc1ccc(C)n2nc(CCc3cn4c(n3)-c3ccccc3C4)nc12 [2-[2-(5,8-Dimethyl-[1,2,4]triazolo[1,5-a]pyridin-2-yl)-ethyl]-5H-imidazo[2,1-a]isoindole] | 0.69 | –
Cc1cnc(CO)c2nc(CCc3cn4c(n3)-c3ccccc3C4)nn12 [{2-[2-(5H-Imidazo[2,1-a]isoindol-2-yl)-ethyl]-5-methyl-[1,2,4]triazolo[1,5-a]pyrazin-8-yl}-methanol] | 6.9 | –

Further lines, with some results ahead:

IC50 (PDE10A enzyme) [nM] | Compound | also measured
3.1 | Cc1ncc(C)n2nc(CCc3cn4c(n3)-c3cc(F)ccc3C4)nc12 [2-[-2-(5,8-Dimethyl-[1,2,4]triazolo[1,5-a]pyrazin-2-yl)-ethyl]-8-fluoro-5H-imidazo[2,1-a]isoindole] | –
0.44 | COc1cccc2c1-c1nc(CCc3nc4c(C)ncc(C)n4n3)cn1C2 [2-[2-(5,8-Dimethyl-[1,2,4]triazolo[1,5-a]pyrazin-2-yl)-ethyl]-9-methoxy-5H-imidazo[2,1-a]isoindole] | –
1.2 | Cc1ncc(C)n2nc(CCc3cn4c(n3)-c3cccc(F)c3C4)nc12 [2-[2-(5,8-Dimethyl-[1,2,4]triazolo[1,5-a]pyrazin-2-yl)-ethyl]-6-fluoro-5H-imidazo[2,1-a]isoindole] | –
6.9 | COc1ccc2c(c1)-c1nc(CCc3nc4c(C)ncc(C)n4n3)cn1C2 [2-[2-(5,8-Dimethyl-[1,2,4]triazolo[1,5-a]pyrazin-2-yl)-ethyl]-8-methoxy-5H-imidazo[2,1-a]isoindole] | –
0.79 | Cc1ncc(C)n2nc(CCc3cn4c(n3)-c3c(F)cccc3C4)nc12 [2-[2-(5,8-Dimethyl-[1,2,4]triazolo[1,5-a]pyrazin-2-yl)-ethyl]-9-fluoro-5H-imidazo[2,1-a]isoindole] | –
3.8 | Cc1ncc(C)n2nc(CCc3cn4c(n3)-c3cccnc3C4)nc12 [2-[2-(5,8-Dimethyl-[1,2,4]triazolo[1,5-a]pyrazin-2-yl)-ethyl]-5H-imidazo[1′,2′:1,5]pyrrolo[3,4-b]pyridine] | –
0.4 | Cc1ncc(C)n2nc(CCc3cn4c(n3)-c3ccccc3C4)nc12 [2-[-2-(5,8-Dimethyl-[1,2,4]triazolo[1,5-a]pyrazin-2-yl)-ethyl]-5H-imidazo[2,1-a]isoindole] | inhibition at 5 mg/kg ([3]; at 5 mg/kg per os, PCP 2.3 mg/kg s.c.): 100%; ED50 ([3]; per os 60 min before PCP 2.3 mg/kg s.c., read-out: ED50, inhibition of PCP induced hyperactivity): 0.2 mg/kg
46 | Cc1ncc(C)n2nc(CCc3cn4c(n3)-c3ncccc3C4)nc12 [2-[2-(5,8-Dimethyl-[1,2,4]triazolo[1,5-a]pyrazin-2-yl)-ethyl]-5H-imidazo[1′,2′:1,2]pyrrolo[3,4-b]pyridine] | –
0.18 | Cc1ncc(C)n2nc(CCc3cn4c(n3)-c3ccc(F)cc3C4)nc12 [2-[-2-(5,8-Dimethyl-[1,2,4]triazolo[1,5-a]pyrazin-2-yl)-ethyl]-7-fluoro-5H-imidazo[2,1-a]isoindole] | –
0.44 | COc1cccc2c1Cn1cc(CCc3nc4c(C)ncc(C)n4n3)nc1-2 [2-[2-(5,8-Dimethyl-[1,2,4]triazolo[1,5-a]pyrazin-2-yl)-ethyl]-6-methoxy-5H-imidazo[2,1-a]isoindole] | –
0.81 | Cc1ncc(C)n2nc(CCc3cn4c(n3)-c3ccccc3CC4)nc12 [2-[2-(5,8-Dimethyl-[1,2,4]triazolo[1,5-a]pyrazin-2-yl)-ethyl]-5,6-dihydro-imidazo[2,1-a]isoquinoline] | –
0.29 | COc1ccc2c(c1)Cn1cc(CCc3nc4c(C)ncc(C)n4n3)nc1-2 [2-[2-(5,8-Dimethyl-[1,2,4]triazolo[1,5-a]pyrazin-2-yl)-ethyl]-7-methoxy-5H-imidazo[2,1-a]isoindole] | –
